Assay results from US7297501B2, “Method and devices for running reactions on a target plate for MALDI mass spectrometry” (University of Pennsylvania, priority 2001, dated 2007).
Each block holds one compound with its values, some of them ahead of it. *: point of attachment. AMC = Cc1cc(=O)oc2cc(N*)ccc12; Cbz = O=C(OCc1ccccc1)*

How the values were obtained:
thrombin [1] = target: T1, thrombin (Homo sapiens, UniProt P00734); experiment: Microarray assay: aerosol deposition of thrombin onto fluorogenic substrates in DMSO/glycerol; format: biochemical; settings: after spray application of thrombin
Procedure: Well characterized for over 30 years, serine proteases of the coagulation pathway in plasma were selected as a system in which to monitor the delivery of complex enzyme fluids to the microassay. Fluorogenic substrates in DMSO/glycerol were assayed to a glass slide.
After spray application, thrombin caused a 65-fold increase in fluorescence activity after conversion of the boc-VPR-MCA substrate. […] Aerosol deposition of pure tPA (10 μM) to a sensing array caused significant cleavage of the tPA, thrombin and Xa substrates, resulting in fluorescence that was 18- to 20-fold above background.

plasmin [2] = settings: Morita, 1977; cited from earlier work
thrombin [3] = target: T1, thrombin; experiment: Label-free nanoliter HTS reaction on MALDI target: thrombin release of fibrinopeptides A and B from fibrinogen, MALDI MS detection; format: biochemical; settings: benzamidine in the nanoliter reaction, FIG. 26B
plasmin [4] = target: plasmin (Homo sapiens, UniProt P00747); experiment: Microarray assay: deposition of pure plasmin onto fluorogenic substrate array; format: biochemical; settings: pure plasmin (1 μM) deposited on the array
Sequence of plasmin (Homo sapiens, UniProt P00747) (P00747 581-810 limits assumed, species assumed): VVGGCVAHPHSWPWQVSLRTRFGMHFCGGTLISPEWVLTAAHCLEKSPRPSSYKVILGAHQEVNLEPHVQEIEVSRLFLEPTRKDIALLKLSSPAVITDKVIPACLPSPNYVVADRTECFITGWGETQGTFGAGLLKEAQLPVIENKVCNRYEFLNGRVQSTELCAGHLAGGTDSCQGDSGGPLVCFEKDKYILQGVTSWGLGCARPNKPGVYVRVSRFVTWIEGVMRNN
Sequence of plasmin (Homo sapiens, UniProt P00747) (P00747 97-580 partner limits assumed, species assumed): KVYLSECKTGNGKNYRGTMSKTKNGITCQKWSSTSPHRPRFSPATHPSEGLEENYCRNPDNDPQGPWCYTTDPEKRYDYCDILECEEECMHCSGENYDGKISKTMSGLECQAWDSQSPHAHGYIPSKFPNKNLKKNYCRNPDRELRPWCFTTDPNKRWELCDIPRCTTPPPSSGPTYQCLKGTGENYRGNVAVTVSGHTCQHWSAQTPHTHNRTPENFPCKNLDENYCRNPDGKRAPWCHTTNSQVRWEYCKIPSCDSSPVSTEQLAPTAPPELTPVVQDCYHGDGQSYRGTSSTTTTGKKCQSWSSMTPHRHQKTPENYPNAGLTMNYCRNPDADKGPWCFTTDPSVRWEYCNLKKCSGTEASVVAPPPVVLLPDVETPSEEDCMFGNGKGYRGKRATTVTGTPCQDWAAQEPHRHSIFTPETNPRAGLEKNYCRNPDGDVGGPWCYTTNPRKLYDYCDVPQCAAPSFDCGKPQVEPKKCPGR

increase in fluorescence activity after conversion of the substrate (thrombin [1]): 65 fold
Compound: boc-VPR-MCA
reported plasmin activity on substrate (plasmin [2]): activity

inhibition of thrombin-mediated release of fibrinopeptides A and B (FPA/FPB) (thrombin [3]): completely inhibited the reaction
Compound: N=C(N)c1ccccc1 [Benzamidine]

Compound: Cbz-Phe-Arg-{AMC}
reported plasmin activity on substrate (plasmin [2]): activity

signal above background (plasmin [4]): 25 fold
Compound: boc-VLK-MCA
